For this assay, the system named is spontaneously hypertensive rats. The assay is described as follows: Determination of antihypertensive activity (blood pressure and heart rate) in anesthetized spontaneously hypertensive rats. In kind it is in vivo. As to conditions: 10 mg./kg. i.p. in aqueous solution, anesthetized spontaneously hypertensive male rats, average of two or more experiments; for change in vivo at 10 mg/kg: Rattus norvegicus, ip. How it is done:
Spontaneously hypertensive male rats were anesthetized with methoxyflurane and α-chloralose (120 mg./kg., i.v.). An aqueous solution of the compound of formula I to be tested was administered i.p. to the animal following a 15-20 minute equilibrium period. Systemic arterial blood pressure was measured from the right carotid artery via a Statham P23 ID pressure transducer and recorded on a Model R411 Beckman Dynograph recorder. Heart rate was recorded with a Beckman 9857B cardiotachometer triggered by the pulse pressure. Mean arterial pressure was calculated as the diastolic pressure plus one third of the pulse pressure. Antihypertensive responses were measured at the maximal reduction in blood pressure occurring within 30 minutes after drug administration as compared to the baseline measurements taken prior to administration of the compound. The effect on heart rate was determined at the same time the maximum reduction in blood pressure was seen and was also compared with the baseline heart rate prior to compound administration. The results in Table I are reported as the maximal reduction in blood pressure and the corresponding effect on heart rate for certain compounds of formula I. The results are the average of two or more experiments.

The mark [1] stands for this setting: heart rate at the time of maximum reduction in blood pressure vs pre-treatment baseline, minus = decrease.
[2] abbreviates: maximal reduction in mean arterial blood pressure within 30 minutes of compound administration vs pre-treatment baseline, minus = reduction.
Setting [3] is: maximal reduction in mean arterial blood pressure within 30 minutes of compound administration vs pre-treatment baseline, minus = reduction, read-out: Effect on blood pressure.
Setting [4] is: heart rate at the time of maximum reduction in blood pressure vs pre-treatment baseline, minus = decrease, read-out: Effect on heart rate.

Counter-ions that a name gives are not always drawn. Like-named read-outs stand apart in the source and are kept apart here.

“2-Amino-7,8-dimethoxy-lH-3-benzazepine [Example 5]”: the “Effect on heart rate” value under setting [1] is given as -21.0%. The “Effect on blood pressure” value under setting [2] was -43.0%.
Regarding “2-Amino-7,8-dimethoxy-lH-3-benzazepine hydrochloride [Example 6]”, the “Effect on heart rate” value under setting [1] is -15.0%. Moreover, the “Effect on blood pressure” value under setting [2] is reported as -56.0%.
Turning to `CCc1cc2c(cc1CC)CC(N)=NC=C2` [Example 1, 2-Amino-7,8-diethyl-1H-3-benzazepine hydrochloride], the change in vivo at 10 mg/kg under setting [3] was -24%.
As to `Cc1cc2c(cc1C)CC(N)=NC=C2` [Example 2, 2-Amino-7,8-dimethyl-lH-3-benzazepine hydrochloride], the change in vivo at 10 mg/kg by setting is: under setting [4], -21.7%; under setting [3], -46.7%.
In the case of `NC1=NC=Cc2cc3ccccc3cc2C1` [Example 3, 2-Amino-lH-naphth[2,3-d]azepine], the change in vivo at 10 mg/kg reads like this: under setting [4], -20%; under setting [3], -31%.
On to `COc1ccc2c(c1)CC(N)=NC=C2` [Example 4, 2-Amino-8-methoxy-1H-3-benzazepine hydrochloride], for which the change in vivo at 10 mg/kg by setting is: under setting [4], -23.5%; under setting [3], -29.5%.
As to `CCOc1cc2c(cc1OC)CC(N)=NC=C2` [Example 7, 2-Amino-7-ethoxy-8-methoxy-lH-3-benzazepine hydrochloride], the change in vivo at 10 mg/kg was -3% under setting [4] and -36% under setting [3].
The like results for `COc1cc2c(cc1C)CC(N)=NC=C2` [Example 8, 2-Amino-7-methoxy-8-methyl-1H-3-benzazepine hydrochloride] were, in that order, -31% and -54%.
Taken in the same sequence, the figures for `NC1=NC=Cc2cc3c(cc2C1)OCO3` [Example 9, 2-Amino-7,8-(methylenedioxy)-lH-3-benzazepine hydrochloride] were -11% and -19%.
As to `NC1=NC=Cc2ccc([N+](=O)[O-])cc2C1` [Example 10, 2-Amino-8-nitro-lH-3-benzazepine], the change in vivo at 10 mg/kg runs as follows: under setting [4], -22%; under setting [3], -55%.
The like results for `CNC1=NC=Cc2cc(OC)c(OC)cc2C1` [Example 11, 2-Methylamino-7,8-dimethoxy-lH-3-benzazepine] were, in that order, -7% and -36%.
`COc1cc2c(cc1OC)CC(NC1CC1)=NC=C2.Cl` [Example 12, 2-Cyclopropylamino-7,8-dimethoxy-lH-3-benzazepine hydrochloride]: the “Effect on heart rate” value under setting [1] was -8.0%. Moreover, the “Effect on blood pressure” value under setting [2] is given as -25.0%.
On to `COc1cc2c(cc1OC)C(C)C(N)=NC=C2` (stereo not drawn) [Example 13, 1-Methyl-2-amino-7,8-dimethoxy-1H-3-benzazepine hydrochloride], for which the change in vivo at 10 mg/kg is, setting by setting: under setting [4], -2%; under setting [3], -22%.
The like results for `CCOc1cc2c(cc1OCC)CC(N)=NC=C2` [Example 14, 2-Amino-7,8-diethoxy-lH-3-benzazepine hydrochloride] were, in that order, -8% and -18%.
The like results for `COc1cc2c(cc1OC)CC(NC(C)C)=NC=C2` [Example 15, 2-Isopropylamino-7,8-dimethoxy-lH-3-benzazepine hydrochloride] were, in that order, -3% and -10%.
As to `CNC1=NC=Cc2ccccc2C1` [Example 16, 2-Methylamino-1H-3-benzazepine], the change in vivo at 10 mg/kg under setting [4] is -9% and the change in vivo at 10 mg/kg under setting [3] was -8%.
The like results for `CCC(C)NC1=NC=Cc2ccccc2C1` (stereo not drawn) [Example 17, 2-Sec-butylamino-lH-3-benzazepine] were, in that order, -13% and -22%.
The like results for `CC(C)CNC1=NC=Cc2ccccc2C1` [Example 18, 2-Isobutylamino-lE-3-benzazepine] were, in that order, -7% and -17%.
Taken in the same sequence, the figures for `C1=Cc2ccccc2CC(NC2CC2)=N1` [Example 19, 2-Cyclopropylamino-lH-3-benzazepine] were -8% and -20%.
For `C=CCNC1=NC=Cc2ccccc2C1` [Example 20, 2-Allylamino-lE-3-benzazepine], the change in vivo at 10 mg/kg is, setting by setting: under setting [4], -15%; under setting [3], -20%.
As for `CC(C)NC1=NC=Cc2ccccc2C1` [Example 21, 2-Isopropylamino-lH-3-benzazepine], the change in vivo at 10 mg/kg under setting [4] was -6% and the change in vivo at 10 mg/kg under setting [3] is -16%.
Taken in the same sequence, the figures for `CCNC1=NC=Cc2cc(OC)c(OC)cc2C1` [Example 22, 2-Ethylamino-7,8-dimethoxy-lH-3-benzazepine] were 2% and -13%.
As to `C=CCNC1=NC=Cc2cc(OC)c(OC)cc2C1` [Example 23, 2-Allylamino-7,8-dimethoxy-lH-3-benzazepine], the change in vivo at 10 mg/kg reads like this: under setting [4], -5%; under setting [3], -15%.
The like results for `Cc1ccc2c(c1)CC(N)=NC=C2` [Example 24, 2-Amino-8-methyl-lH-3-benzazepine] were, in that order, -22% and -35%.
Taken in the same sequence, the figures for `CCOc1cc2c(cc1OC)CC(NC1CC1)=NC=C2` [Example 25, 2-Cyclopropylamino-7-ethoxy-8-methoxy-lH-3-benzazepine hydrochloride] were -6% and -9%.
Regarding `Cc1ccc(C)c2c1C=CN=C(N)C2` [Example 26, 2-Amino-6,9-dimethyl-lH-3-benzazepine hydrochloride], the change in vivo at 10 mg/kg under setting [3] was -44%.
Turning to `COc1cc2c(cc1O)CC(N)=NC=C2` [Example 27, 2-Amino-7-methoxy-8-hydroxy-lE-3-benzazepine hydrochloride], the change in vivo at 10 mg/kg by setting is: under setting [4], -12%; under setting [3], -29%.
On to `COc1cc2c(cc1O)C=CN=C(N)C2` [Example 28, 2-Amino-7-hydroxy-8-methoxy-1H-3-benzazepine hydrochloride], for which the change in vivo at 10 mg/kg reads like this: under setting [4], 0%; under setting [3], -11%.
The like results for `C#CCNC1=NC=Cc2cc(OC)c(OC)cc2C1` [Example 29, 2-Propargylamino-7,8-dimethoxy-lH-3-benzazepine hydrochloride] were, in that order, -11% and -29%.
Taken in the same sequence, the figures for `NC1=NC=Cc2ccc3ccccc3c2C1` [Example 30, 2-Amino-1H-naphth[1,2-d]azepine hydrochloride] were -6% and -37%.
Regarding `NC1=NC=Cc2cc3c(cc2C1)CCC3` [Example 31, 2-Amino-1,7,8,9-tetrahydroindeno[5,6-d]-azepine hydrochloride], the change in vivo at 10 mg/kg reads like this: under setting [4], -16%; under setting [3], -40%.
As to `COc1ccc(OC)c2c1C=CN=C(N)C2` [Example 32, 2-Amino-6,9-dimethoxy-lH-3-benzazepine hydrochloride], the change in vivo at 10 mg/kg runs as follows: under setting [4], -13%; under setting [3], -32%.
Taken in the same sequence, the figures for `COc1cc(C)c(OC)c2c1CC(N)=NC=C2` [Example 33, 2-Amino-7-methyl-6,9-dimethoxy-lH-3-benzazepine hydrochloride] were -43% and -47%.
The like results for `NC1=NC=Cc2cc3c(cc2C1)CCCC3` [Example 34, 2-Amino-7,8,9,10-tetrahydro-1H-naphth[2,3-d]-azepine hydrochloride] were, in that order, -15% and -30%.
Taken in the same sequence, the figures for `NC1=NC=Cc2ccc3c(c2C1)CCCC3` [Example 35, 2-amino-8,9,10,11-tetra-hydro-lH-naphth[1,2-d]azepine hydrochloride] were -12% and -33%.
Regarding `COc1cc2c(cc1F)CC(N)=NC=C2` [Example 36, 2-Amino-8-fluoro-7-methoxy-1H-3-benzazepine hydrochloride], the change in vivo at 10 mg/kg is -8% under setting [4] and -31% under setting [3].
Taken in the same sequence, the figures for `CCOc1cc2c(cc1OC)C=CN=C(N)C2` [Example 37, 2-Amino-8-ethoxy-7-methoxy-lH-3-benzazepine hydrochloride] were -23% and -48%.

Source of the values: patent EP0116444A2, “Improvements in or relating to benzazepine derivatives” (ELI LILLY AND COMPANY, priority 1983, dated 1984).
